Patent US5759836A, “Osteoarthritis-associated inducable isoform of nitric oxide synthetase” (priority 1995, dated 1998)
Entries after “also recorded” stand apart in the source; their conditions may differ.

Key:
iNOS [1] = test: Nitrite accumulation in LPS-stimulated RAW 264.7 murine macrophages (Griess method); type: cell-based; conditions: for further inhibition of nitrite accumulation above that observed at 3 mM: suprapharmacological
Method: Effects of NSAIDs on Nitrite Accumulation. […] The expression and activity of iNOS were monitored by estimation of the stable end-product: nitrites.
concentrations of NSAIDs for 2 h followed by addition of 100 ng/ml of LPS
After 16-18 h of incubation, the medium was used to estimate the
accumulation of nitrite by the Greiss method (Green et al., Anal Biochem.
(§1) The specific activity of iNOS was determined in cellfre
(§2) extracts at a given time period as described. The nitrite and specific
activity data are representative of mean ± SD value, as determined by
student t test, for 10 and 4 independent experiments, respectively. The p
values described are compared with LPSstimulated cells. […]

iNOS [2] = test: Specific activity of iNOS in cell-free extracts of RAW 264.7 cells exposed to drug during LPS induction; type: cell-based, murine
Method: Assays for iNOS in Cell-Free Extracts. […] The reaction mixture for iNOS assay (in cell-free extracts) consists of Tris […] (pH 7.8); BSA 1 mg/ml; DTT 1 mM; CaCl2, 2 mM; FAD 10 μM; BH4 10 μM; L-arginine 30 μM; NADPH 1 mM. The assay mixture for cNOS consists of Tris 50 mM (pH 7.8); L-arginine 50 μM; calmodulin 10 μg/ml; BH4 10 μM; CaCl2 2 mM; NADPH 100 μM. RAW 264.7 cells were induced with LPS in the presence and absence of NSAIDs for 16-18 h. […] Cells were re-pelleted at 4° C. and resuspended in Tris buffer (10 mM, pH 7.4) containing 1 mg/ml each chymostatin, antipain, leupeptin and pepstatin, 1 mM DTT and 1 mM PMSF. Cells were lysed in a Polytron PT 1200 homogenizer (Kinematica AG, Switzerland) after 3 cycles of rapid freeze-thawing. The lysate was centrifuged at 16,000 rpm for 60 min at 4° C., and the supernatants were used as cell-free extracts. […] After 20 min the assays were terminated by heating the reaction mixture at 90° C. for 5 min. The precipitates were removed by centrifuging at 15,000 rpm for 20 min. Ten microliters (≈50,000 cpm) of the supernatant was spotted on activated Avicel TLC plates (Analtech, Newark, Del.). The TLC plates were developed in a solvent system consisting of ethanol:water:ammonia (80:16:4). Quantitation of the spot for L-[^3 3H]-citrulline was performed by a Bioscan System 200 Imaging Scanner. A phosphoimager can also be used for such quantification.
as §1, §2

iNOS [3] = test: iNOS protein expression, Western blot, LPS-treated RAW 264.7 cells; type: cell-based, murine
Method: Western Blot Analysis. Equal amounts of protein (50 μg) estimated by BCA reagent (Pierce, Rockford, Ill.) were loaded onto SDS-PAGE gels and stained to verify the concentrations of various protein fractions by examining the intensities of the protein bands on the gels. Western blot analysis was carried out from the same cell extracts. The Western-blotted membrane was probed with a specific anti-iNOS monoclonal antibody, as specified by Transduction Laboratories (Lexington, Ky.). The blots were developed using the ECL Western blot system (Amersham, Arlington Heights, Ill.). Quantitation of the bands was performed using a densitometer from Molecular Dynamics (Sunnyville, Calif.).
The protein expression data are represented as
ND = not done. NS = not significant.
A Western blot analysis of iNOS protein was carried out in cells treated with […] LPS in the presence and absence of NSAIDs for 16-18 h.

COX-2 = biological target: T1, COX-2 (Mus musculus, UniProt Q05769); type: cell-based, murine; conditions: 3 mM
T1 construct: Cells were incubated with LPS (1 μg/ml) for 16 h to induce COX-2; endogenous in cells; host or cells: RAW 264.7 murine macrophages, LPS-induced
T1 sequence (Q05769 18-604): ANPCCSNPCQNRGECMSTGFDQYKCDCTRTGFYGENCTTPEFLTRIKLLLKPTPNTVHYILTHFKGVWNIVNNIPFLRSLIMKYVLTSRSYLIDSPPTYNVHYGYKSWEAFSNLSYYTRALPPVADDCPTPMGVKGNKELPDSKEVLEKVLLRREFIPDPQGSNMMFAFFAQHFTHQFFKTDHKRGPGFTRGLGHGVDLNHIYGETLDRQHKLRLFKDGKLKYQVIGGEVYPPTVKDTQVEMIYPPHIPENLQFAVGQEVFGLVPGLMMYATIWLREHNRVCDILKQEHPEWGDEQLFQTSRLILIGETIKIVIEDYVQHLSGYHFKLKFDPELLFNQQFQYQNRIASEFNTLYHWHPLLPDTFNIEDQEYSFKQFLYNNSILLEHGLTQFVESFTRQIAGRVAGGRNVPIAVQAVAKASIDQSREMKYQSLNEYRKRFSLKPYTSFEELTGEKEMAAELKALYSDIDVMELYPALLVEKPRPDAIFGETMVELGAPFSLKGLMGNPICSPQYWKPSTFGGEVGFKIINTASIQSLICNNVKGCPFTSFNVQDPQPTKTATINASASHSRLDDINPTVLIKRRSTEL

iNOS [4] = test: iNOS expression in stimulated rat chondrosarcomas; type: cell-based
Method: NSAIDs were tested in: (FIG. 5A) rat chondrosarcomas stimulated with LPS, and (FIG. 5B) unstimulated OA cartilage (n=3).

OA-NOS [5] = test: Nitrite release by OA-affected articular cartilage, ex vivo organ culture; type: cell-based, human
NF-κB = conditions: cited from earlier work
COX = conditions: cited from earlier work
OA-NOS [6] = test: Sensitivity of OA-NOS to agents (Table 3 comparison)

CC(=O)Oc1ccccc1C(=O)O [Aspirin, aspirin]
Nitrite released, Nitrite (iNOS [1]; 1 mM, LPS 100 ng/ml, 16-18 h): 26.6 ± 4.3 µM | Nitrite released, Nitrite (iNOS [1]; 2 mM, LPS 100 ng/ml, 16-18 h): 22.9 ± 5.3 µM | Nitrite released, Nitrite (iNOS [1]; 3 mM, LPS 100 ng/ml, 16-18 h): 20.3 ± 3.9 µM | further inhibition of nitrite accumulation above that observed at 3 mM (iNOS [1]; 5 mM): 50% | further inhibition of nitrite accumulation above that observed at 3 mM (iNOS [1]; 10 mM): 80% | inhibition at 1000 µM (iNOS [1]; Mus musculus, RAW264.7, read-out: Nitrite released, % inhibition, 1 mM, LPS 100 ng/ml, 16-18 h): 10% | inhibition at 2000 µM (iNOS [1]; Mus musculus, RAW264.7, read-out: Nitrite released, % inhibition, 2 mM, LPS-stimulated, 16-18 h): 22% | inhibition at 3000 µM (iNOS [1]; Mus musculus, RAW264.7, read-out: Nitrite released, % inhibition, 3 mM, LPS 100 ng/ml, 16-18 h): 32% | Specific activity of iNOS (iNOS [2]; 1 mM): 271.7 ± 17.2 pmol/min/mg protein | Specific activity of iNOS (iNOS [2]; 2 mM): 231.3 ± 29.8 pmol/min/mg protein | Specific activity of iNOS (iNOS [2]; 3 mM): 162.3 ± 25.9 pmol/min/mg protein | Specific activity, % inhibition (iNOS [2]; 3 mM, cell-free extracts, 16 h): 47% | inhibition at 3000 µM (iNOS [2]; Mus musculus, RAW264.7, 16 h, read-out: Specific activity, % inhibition, 3 mM, cell-free extracts, 16 h): 48% | IC50 (iNOS [2]; Mus musculus, RAW264.7, read-out: IC50, specific enzyme activity of iNOS): 3000 µM | inhibition at 1000 µM (iNOS [2]; Mus musculus, RAW264.7, read-out: Specific activity, % inhibition, 1 mM): 12% | inhibition at 2000 µM (iNOS [2]; Mus musculus, RAW264.7, read-out: Specific activity, % inhibition, 2 mM): 25% | decrease of iNOS expression (iNOS [3]; 10 mM, Western blot, 10000 µM): ~ 70% | effect on iNOS expression, Western blot (iNOS [3]; LPS, 16-18 h, indomethacin 5 μM): significant decrease in the expression of iNOS | inhibition at 10000 µM (iNOS [3]; Mus musculus, RAW264.7, read-out: decrease of iNOS expression, 10 mM, Western blot): 69% | inhibition at 3000 µM (iNOS [3]; Mus musculus, RAW264.7, read-out: inhibition of iNOS protein expression, 3 mM, approximate, densitometry): ~53% | % inhibition of COX-2 specific activity (COX-2): > 75% | inhibition of iNOS expression in rat chondrosarcomas (iNOS [4]; 72 h, added 1 h prior to cytokines): ~ 57% | effect on iNOS in rat chondrosarcomas (iNOS [4]; LPS/cytokine-stimulated, L-NMMA 500 μM, indomethacin 20 μM): significant inhibition of iNOS | effect on nitrite accumulation / NOS expression in OA cartilage (OA-NOS [5]): blocked iNOS expression in OA cartilage | rank order of inhibition of spontaneous nitrite accumulation (OA-NOS [5]): aspirin>indomethacin>sodium salicylate | inhibition at 2000 µM (OA-NOS [5]; 2 mM, human osteoarthritic cartilage ex vivo, read-out: suppression of accumulation of nitrites): ≥ 50% | activation of NF-κB (NF-κB; 5-20 mM, suprapharmacological): interfere in the activation of NF-κB | NF-κB-dependent transcription (NF-κB; aspirin 3 mM, sodium salicylate 5 mM, luciferase reporter): inhibit NF-κB-dependent transcription | NF-κB activation, gel shift assays (NF-κB; same concentrations (aspirin 3 mM; sodium salicylate 5 mM)): no significant effect on NF-κB activation | COX inhibition (COX): an effective inhibitor of COX | cyclooxygenase and peroxidase activity of COX (COX): inactivates the cyclooxygenase and not the peroxidase activity | sensitivity of OA-NOS (OA-NOS [6]): blocked; also recorded: shows sensitivity
